The text below walks through data of patent US20130072553A1, “DRUGS, DERIVATIVES AND ANALOGS CONTAINING ADAMANTANE STRUCTURES OF NEW INDICATION APPLICATIONS OF ANTI-TUMOR” (priority 2009, published 2013).

Structures are written as SMILES. Read-outs that look alike come from different tables or passages of the source.

Series [1] relates to human colorectal cancer cell line HT29. Kind of series: In vitro anti-cancer cell experiment (MTT), colorectal cancer HT29. The class given is cell-based. The protocol: (§1) Cell lines: Human pancreatic cancer cell line Panc-1, human colorectal cancer cell line HT29, human lung cancer cell line NCI-H460 and human breast cancer cell line MCF7; the medium: s DMEM (Gibco BRL), containing 10% fetal calf serum (Gibco BRL) and 2 mM L-glutamine (Gibco BRL).
(§2) The samples were dissolved in dimethyl sulfoxide (DMSO, Sigma, United States) and medium was added to the final concentration of 0.5%. cyclophosphamide was as positive control (CTX, purity>96%).
(§3) Method: cells were digested with trypsin and dispersed into single cells in the medium containing penicillin (25 U/ml) and streptomycin (25 μg/ml). The cells were seeded in 96-well culture plates (Corning Incorporated), at 37° C., with 5% CO2 present for 24 hours. The culture medium was removed, 1-100 μm test compounds were added, cultured for 48 hours. Culture medium was removed and […] (MTT, USA Sigma products) was added. The result was assayed by SK601-based microplate reader (Japan Seikagaku company's products), 570 nm/630 nm optical density (OD). Cell viability determined by the formula: (Experimental group OD/control OD)×100%; CDDP and the positive control subjects treated in the same material simultaneously.

The test system of series [2] is Human pancreatic cancer cell line Panc-1. Kind of series: In vitro anti-cancer cell experiment (MTT), pancreatic cancer Panc-1. In kind it is cell-based. As for the experimental part: as §1, §2, §3
Series [3] concerns human lung cancer cell line NCI-H460. Kind of series: In vitro anti-cancer cell experiment (MTT), lung cancer NCI-H460. The class given is cell-based. As for the experimental part:
as §1, §2, §3

The test system of series [4] is human breast cancer cell line MCF7. In words: In vitro anti-cancer cell experiment (MTT), breast cancer MCF7. The class given is cell-based. The protocol: as §1, §2, §3
Series [5] deals with mice sarcoma S180. Kind of series: Inhibition of the sarcoma growth S180 in mice. In kind it is in vivo. The conditions noted are these: for inhibition compared with positive control cyclophosphamide / inhibition rate compared with positive control 5-FU: by tumor weight, seven days; for anti-tumor efficacy in vivo: iv. As for the experimental part:
Tumor strains: mice sarcoma S180 for ascites passaged from Beijing Academy of Military Medical Institute of Pharmacology.
(§4) Xenografts cultured S180 tumor cells were implanted subcutaneously into the flank region of mice and tumors were allowed to grow to the desired average size of 100 mg. The mice were randomized into control and treatment groups with 10 mice per group. The control group was injected with the vehicle used to dissolve the drug. […] Injections were I.V. via the tailvein.
(§5) The test group inoculated tumor cells […] in mice armpit, administration and observation of seven days.

A short description of series [6]: Body weight of S180 tumor-bearing mice. As for the experimental part:
as §4, §5

Setting [7] is: HT-29, HT29 cells, 48 hours, MTT, value (95% confidence limits), read-out: IC50 and 95% confidence limit, anti-proliferative effect on HT29.
[8] abbreviates: HT-29 cells, 48 hours, MTT, read-out: IC50 Colorectal cancer HT-29.
Setting [9] is: Panc-1 cells, 48 hours, MTT, read-out: IC50 Pancreatic cancer Panc-1.
Setting [10] is: Panc-1 cells, 48 hours, MTT, value (95% confidence limits), read-out: IC50 and 95% confidence limits, anti-proliferative effect on Panc-1.
The mark [11] stands for this setting: NCI-H460 cells, 48 hours, MTT, read-out: IC50 Lung cancer NCI-H460.
Setting [12] is: NCI-H460 cells, 48 hours, MTT, value (95% confidence limits), unit given only for CTX, read-out: IC50 and 95% confidence limits, inhibitory effect on lung cancer NCI-H460 cells.
The mark [13] stands for this setting: MCF7 cells, 48 hours, MTT, read-out: IC50 Breast cancer MCF7.
Setting [14] is: MCF7 cells, 48 hours, MTT, value (95% confidence limits), unit given only for CTX, read-out: IC50 with 95% confidence limits, inhibitory effect on breast cancer MCF7 cells.
The mark [15] stands for this setting: MCF7, 48 h, read-out: IC50 with 95% confidence limits, inhibitory effect on breast cancer MCF7 cells.

By IC50 is commonly meant the concentration that inhibits the measured activity by half. For the molecule `CC(N)C12CC3CC(CC(C3)C1)C2` (centres unmarked) [Compound 2, Rimantadine], the IC50 in series [1] (setting [7]) came out at 3.92 µg/mL; in series [1] (setting [8]) it was 3.92 µM; in series [2] (setting [9]), 2.42 µM; in series [2] (setting [10]), 2.42 µg/mL; in series [3] (setting [11]), 22 µM; in series [3] (setting [12]), 22 µg/mL. The half-maximal inhibitory concentration (IC50) in series [4] (setting [13]) turned out to be 2.73 µM; in series [4] (setting [14]), 2.73 µg/mL. Besides, the “inhibition compared with positive control cyclophosphamide” value in series [5] was “significantly better than the positive control group of cyclophosphamide”. Moreover, the “inhibition rate compared with positive control 5-FU” value in series [5] is given as “better than the positive control group, 5-FU”. In addition, the “anti-tumor efficacy in vivo” value in series [5] is recorded as “statistically significant”. Further, in series [6] (mouse, in vivo, iv), the “body Weight/g After ad.” value was found to be 26.02 ± 3.69 g. Moreover, the “body Weight/g Before ad.” value in series [6] (mouse, in vivo, iv) is 19.35 ± 0.95 g.
As for `O=C1C2CC3CC1CC(O)(C3)C2` [Compound 6, Idramantone], the IC50 in series [2] (setting [9]) turned out to be 53.5 µM. Besides, in series [2] (setting [10]), the 50% inhibitory concentration (IC50) was 53.5 µg/mL. Also, the “anti-tumor efficacy in vivo” value in series [5] is on record as “statistically significant”. Also, in series [6] (mouse, in vivo, iv), the “body Weight/g After ad.” value stood at 26.30 ± 3.62 g and the “body Weight/g Before ad.” value is listed as 19.92 ± 1.47 g.
Consider `COc1ccc(-c2ccc3cc(C(=O)O)ccc3c2)cc1C12CC3CC(CC(C3)C1)C2` [Compound 5, Adapalene], for which the half-inhibitory concentration (IC50) is 0.85 µg/mL in series [1] (setting [7]); 0.85 µM in series [1] (setting [8]); 2.17 µM in series [2] (setting [9]); 2.17 µg/mL in series [2] (setting [10]); 2.81 µM in series [3] (setting [11]); 2.81 µg/mL in series [3] (setting [12]). Moreover, in series [5], the “inhibition compared with positive control cyclophosphamide” value is given as “significantly better than the positive control group of cyclophosphamide”. Moreover, the “inhibition rate compared with positive control 5-FU” value in series [5] was “better than the positive control group, 5-FU”. Also, the “anti-tumor efficacy in vivo” value in series [5] is on record as “statistically significant”. Further, in series [6] (mouse, in vivo, iv), the “body Weight/g After ad.” value is reported as 20.80 ± 3.61 g. Also, the “body Weight/g Before ad.” value in series [6] (mouse, in vivo, iv) was 20.27 ± 1.80 g.
On to `O=P1(N(CCCl)CCCl)NCCCO1` (centres unmarked) [CTX, cyclophosphamide], for which the IC50 in series [1] (HT-29, 48 h, read-out: IC50 Colorectal cancer HT-29) stood at 2.26 µM; in series [1] (HT-29, 48 h, read-out: IC50 and 95% confidence limit, anti-proliferative effect on HT29), 2.26 µg/mL; in series [2] (PANC-1, 48 h, read-out: IC50 Pancreatic cancer Panc-1), 2.23 µM; in series [2] (PANC-1, 48 h, read-out: IC50 and 95% confidence limits, anti-proliferative effect on Panc-1), 2.23 µg/mL; in series [3] (NCI-H460, 48 h, read-out: IC50 Lung cancer NCI-H460), 4.3 µM; in series [3] (NCI-H460, 48 h, read-out: IC50 and 95% confidence limits, inhibitory effect on lung cancer NCI-H460 cells), 4.3 µg/mL. Also, the half-maximal inhibitory concentration (IC50) came out at 0.92 µM in series [4] (MCF7, 48 h, read-out: IC50 Breast cancer MCF7) and 0.92 µg/mL in series [4] (setting [15]). For the same molecule, in series [6] (after administration, iv, seven days, X ± SD), the “body Weight/g After ad.” value was determined as 28.22 ± 2.46 g. For the same molecule, in series [6] (before administration (baseline), iv groups, X ± SD), the “body Weight/g Before ad.” value is 22.45 ± 0.79 g.
In the case of `CC12CC3CC(C)(C1)CC(N)(C3)C2` [Compound 3, Memantine], the half-inhibitory concentration (IC50) in series [1] (setting [7]) turned out to be 13.1 µg/mL; in series [1] (setting [8]) it was 13.1 µM; in series [2] (setting [9]), 53 µM; in series [2] (setting [10]), 53 µg/mL; in series [3] (setting [11]), 60.5 µM; in series [3] (setting [12]), 60.5 µg/mL. Also, the concentration for half-maximal inhibition (IC50) in series [4] (setting [13]) turned out to be 34.3 µM; in series [4] (setting [14]), 34.3 µg/mL. In series [5], the “inhibition compared with positive control cyclophosphamide” value is reported as “significantly better than the positive control group of cyclophosphamide”. The “inhibition rate compared with positive control 5-FU” value in series [5] was “better than the positive control group, 5-FU”. In series [5], the “anti-tumor efficacy in vivo” value was “statistically significant”. The “body Weight/g After ad.” value in series [6] (mouse, in vivo, iv) is on record as 28.98 ± 1.74 g. In series [6] (mouse, in vivo, iv), the “body Weight/g Before ad.” value is recorded as 21.31 ± 1.53 g.
Take `O=c1[nH]cc(F)c(=O)[nH]1` [Compound 5-FU, 5-fluorouracil]: in series [6] (mouse, in vivo, iv), the “body Weight/g After ad.” value is on record as 29.16 ± 2.50 g and the “body Weight/g Before ad.” value stood at 21.61 ± 1.56 g.
In the case of `CN(C)CCOCC(=O)NC12CC3CC(CC(C3)C1)C2` [Compound 4, Tromantadine], the IC50 in series [1] (setting [7]) was determined as 10.2 µg/mL; in series [1] (setting [8]), 10.2 µM; in series [2] (setting [9]) it was 10 µM; in series [2] (setting [10]), 10 µg/mL; in series [3] (setting [11]), 8.52 µM; in series [3] (setting [12]), 8.52 µg/mL. In addition, the half-maximal inhibitory concentration (IC50) was determined as 67.5 µM in series [4] (setting [13]) and 67.5 µg/mL in series [4] (setting [14]). Moreover, the “inhibition rate compared with positive control 5-FU” value in series [5] is listed as “better than the positive control group, 5-FU”. Moreover, the “anti-tumor efficacy in vivo” value in series [5] was “statistically significant”. Besides, the “body Weight/g After ad.” value in series [6] (mouse, in vivo, iv) was determined as 28.64 ± 4.13 g. Besides, the “body Weight/g Before ad.” value in series [6] (mouse, in vivo, iv) worked out at 21.03 ± 0.29 g.
Take `NC12CC3CC(CC(C3)C1)C2` [Compound 1, Amantadine]: the half-maximal inhibitory concentration (IC50) turned out to be 18.8 µg/mL in series [1] (setting [7]); 18.8 µM in series [1] (setting [8]); 51.3 µM in series [2] (setting [9]); 51.3 µg/mL in series [2] (setting [10]); 5.18 µM in series [3] (setting [11]); 5.18 µg/mL in series [3] (setting [12]). The IC50 in series [4] (setting [15]) stood at 6.18 µg/mL; in series [4] (setting [13]), 6.18 µM. The “anti-tumor efficacy in vivo” value in series [5] is given as “statistically significant”. Also, the “body Weight/g After ad.” value in series [6] (mouse, in vivo, iv) is given as 27.93 ± 3.37 g. Also, the “body Weight/g Before ad.” value in series [6] (mouse, in vivo, iv) is given as 21.41 ± 2.52 g.
